Measurements taken from PubChem BioAssay (NCI).
Several values for one entry are separate records, joined by “and”; a condition that tells them apart may be missing. Identical values can stand only once.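 Interpolation was linear, between the two tested concentrations surrounding the appropriate level; five concentrations were tested over 48 hours in 96-well plates. GI50 marks 50% less growth. TGI: total growth inhibition.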

Experiments:
Assay in all cases: growth of human tumour cells (NCI), 48 h
[1] = test system: 786-0 renal
[2] = test system: BT-549 breast
[3] = test system: CAKI-1 renal
[4] = test system: KM12 colon
[5] = test system: M14 melanoma
[6] = test system: MALME-3M melanoma
[7] = test system: NCI-H460 lung
[8] = test system: OVCAR-8 ovarian
[9] = test system: SF-295 CNS
[10] = test system: UACC-62 melanoma

In the case of `COc1ccc2c(Cl)cc(NC(=O)Nc3c(C)cccc3C)nc2c1`, the GI50 [1] is reported as 7.92 µM, the TGI [1] is reported as > 100 µM and the GI50 [2] is reported as 36 µM. For the same molecule, the TGI [2] was > 100 µM, the GI50 [3] was 5.27 µM and the TGI [3] was > 100 µM. For the same molecule, the GI50 [4] was 35.7 µM, the TGI [4] was > 100 µM and the GI50 [5] was 31.8 µM. The TGI [5] was > 100 µM, the GI50 [6] was 10.2 µM and the TGI [6] was 58.5 µM. For the same molecule, the GI50 [7] was 4.02 µM, the TGI [7] was > 100 µM and the GI50 [8] was 24.7 µM. For the same molecule, the TGI [8] was > 100 µM, the GI50 [9] was 4.31 µM and the TGI [9] was 43.9 µM. The GI50 [10] was 64.3 µM and the TGI [10] was > 100 µM.

`COc1cc(N2CCN(C(C)C)CC2)ccc1Nc1nc(Nc2cccc(F)c2C(=O)O)c2cc[nH]c2n1` was tested, and the GI50 [1] was > 25 µM, the TGI [1] was > 25 µM and the GI50 [2] was > 25 µM. For the same molecule, the TGI [2] was > 25 µM, the GI50 [3] was > 25 µM and the TGI [3] was > 25 µM. The GI50 [4] was > 25 µM, the TGI [4] was > 25 µM and the GI50 [5] was > 25 µM. For the same molecule, the TGI [5] was > 25 µM, the GI50 [6] was > 25 µM and the TGI [6] was > 25 µM. The GI50 [7] was > 25 µM, the TGI [7] was > 25 µM and the GI50 [8] was > 25 µM. The TGI [8] was > 25 µM, the GI50 [9] was > 25 µM and the TGI [9] was > 25 µM. The GI50 [10] was > 25 µM and the TGI [10] was > 25 µM.

`N=C(N)c1ccc(NCCOCCNc2ccc(C(=N)N)cc2)cc1` was tested, and the GI50 [1] was > 100 µM, the TGI [1] was > 100 µM and the GI50 [2] was 34.9 µM. For the same molecule, the TGI [2] was > 100 µM, the GI50 [3] was > 100 µM and the TGI [3] was > 100 µM. For the same molecule, the GI50 [4] was 43.8 µM, the TGI [4] was > 100 µM and the GI50 [5] was 55.4 µM. The TGI [5] was > 100 µM, the GI50 [6] was 29.7 µM and the TGI [6] was 87 µM. For the same molecule, the GI50 [7] was 2.94 µM, the TGI [7] was > 100 µM and the GI50 [8] was 34.4 µM. For the same molecule, the TGI [8] was > 100 µM, the GI50 [9] was 43.3 µM and the TGI [9] was > 100 µM. For the same molecule, the GI50 [10] was 29.2 µM and the TGI [10] was > 100 µM.

With `COc1cccc2c1C(=O)c1c(O)c3c(c(O)c1C2=O)C[C@@](O)(C(=O)CO)CC3OC1CC(O)C(O)C(C)O1` (some centres undefined) the TGI [1] was 12.5 µM, the TGI [2] was 1.47 µM and the TGI [3] was 12.1 µM. The TGI [4] was 7.49 µM, the TGI [5] was 1.88 µM and the TGI [6] was 0.806 µM. The TGI [7] was 1.8 µM, the TGI [8] was 9.78 µM and the TGI [9] was 1.16 µM. It also gave a TGI [10] of 0.492 µM.

In the case of `Cc1cc2nc3cc(C)c(N)cc3[n+](-c3ccccc3)c2cc1N`, the GI50 [1] is reported as 6.26 µM, the TGI [1] is reported as > 100 µM and the GI50 [2] is reported as 2.64 µM. The TGI [2] was 18.8 µM, the GI50 [3] was > 100 µM and the TGI [3] was > 100 µM. For the same molecule, the GI50 [4] was 2.07 µM, the TGI [4] was 17.6 µM and the GI50 [5] was 21.2 µM. For the same molecule, the TGI [5] was > 100 µM, the GI50 [6] was 3.98 µM and the TGI [6] was 51.1 µM. The GI50 [7] was 3.57 µM, the TGI [7] was 19.7 µM and the GI50 [8] was 2.83 µM. For the same molecule, the TGI [8] was > 100 µM, the GI50 [9] was 2.94 µM and the TGI [9] was > 73.8 µM. For the same molecule, the GI50 [10] was 6.19 µM and the TGI [10] was 30.7 µM.

`C[C@]12CC[C@H]3[C@@H](C[C@@H]4SC(Nc5ccccc5)=N[C@@]45CC(O)CC[C@]35C)[C@@H]1CCC2O` (some centres undefined) showed a GI50 [1] of 1.22 µM, a TGI [1] of 3.3 µM and a GI50 [2] of 1.38 µM. It also gave a TGI [2] of 4.31 µM, a GI50 [3] of 2.32 µM and a TGI [3] of 5.68 µM. It also gave a GI50 [4] of 1.68 µM, a TGI [4] of 3.12 µM and a GI50 [5] of 1.84 µM. It also gave a TGI [5] of 4.27 µM, a GI50 [6] of 2.19 µM and a TGI [6] of 5.89 µM. It also gave a GI50 [7] of 1.95 µM, a TGI [7] of 4.04 µM and a GI50 [8] of 3.43 µM. The TGI [8] was 14.9 µM, the GI50 [9] was 1.06 µM and the TGI [9] was 2.98 µM. For the same molecule, the GI50 [10] was 1.83 µM and the TGI [10] was 3.96 µM.

`NCCOc1ccccc1/C=C1\c2ccccc2-c2ccc([N+](=O)[O-])cc21` gave a GI50 [1] of 1.7 µM, a TGI [1] of 3.23 µM and a GI50 [2] of 1.5 µM. The TGI [2] was 2.84 µM, the GI50 [3] was 1.38 µM and the TGI [3] was 2.72 µM. For the same molecule, the GI50 [4] was 1.55 µM, the TGI [4] was 2.94 µM and the GI50 [5] was 1.65 µM. The TGI [5] was 3.02 µM, the GI50 [6] was 1.5 µM and the TGI [6] was 2.91 µM. It also gave a GI50 [7] of 0.488 µM, a TGI [7] of 1.66 µM and a GI50 [8] of 1.53 µM. For the same molecule, the TGI [8] was 3.33 µM, the GI50 [9] was 1.7 µM and the TGI [9] was 3.18 µM. The GI50 [10] was 1.54 µM and the TGI [10] was 2.92 µM.

`Cc1cc(C(=O)NC(CCC(=O)O)C(=O)O)sc1CCC1CNc2nc(N)[nH]c(=O)c2C1` (centres undefined) was tested, and the GI50 [1] was < 0.01 µM, the TGI [1] was > 100 µM and the GI50 [2] was 0.37 µM and 2.39 µM. For the same molecule, the TGI [2] was > 100 µM, the GI50 [3] was < 0.018 µM and 0.0234 µM and the TGI [3] was > 100 µM. For the same molecule, the GI50 [4] was 0.0383 µM and 0.0937 µM, the TGI [4] was > 100 µM and the GI50 [5] was < 0.0192 µM and 0.0501 µM. The TGI [5] was > 100 µM, the TGI [6] was > 100 µM and the GI50 [7] was < 0.0186 µM and 0.0404 µM. For the same molecule, the TGI [7] was > 100 µM, the GI50 [8] was < 0.0215 µM and 0.0454 µM and the TGI [8] was > 100 µM. The GI50 [9] was 0.0537 µM and 0.0973 µM, the TGI [9] was > 100 µM and the GI50 [10] was 0.049 µM and 0.0557 µM. For the same molecule, the TGI [10] was > 100 µM.

With `CCC(=O)Nc1ccccc1C#C/C=C\C#Cc1ccccc1C(F)(F)F` the GI50 [1] was 2.37 µM, the TGI [1] was 23.2 µM and the GI50 [2] was 2.21 µM. The TGI [2] was 32.5 µM, the GI50 [3] was 1.53 µM and the TGI [3] was > 30.4 µM. The GI50 [4] was 2.02 µM, the TGI [4] was > 26.5 µM and the GI50 [5] was 2.09 µM. The TGI [5] was 23.2 µM, the GI50 [6] was 7.54 µM and the TGI [6] was > 50 µM. For the same molecule, the GI50 [7] was 1.63 µM, the TGI [7] was 5.88 µM and the GI50 [8] was 8.04 µM. For the same molecule, the TGI [8] was > 50 µM, the GI50 [9] was 1 µM and the TGI [9] was 5.34 µM. For the same molecule, the GI50 [10] was 2.38 µM and the TGI [10] was > 50 µM.

`CCCNC(=O)c1ccc(Cl)cc1Cl` was tested, and the GI50 [1] was > 100 µM, the TGI [1] was > 100 µM and the GI50 [2] was > 100 µM. The TGI [2] was > 100 µM, the GI50 [3] was > 100 µM and the TGI [3] was > 100 µM. The GI50 [4] was > 100 µM, the TGI [4] was > 100 µM and the GI50 [5] was > 100 µM. The TGI [5] was > 100 µM, the GI50 [6] was > 100 µM and the TGI [6] was > 100 µM. For the same molecule, the GI50 [7] was > 100 µM, the TGI [7] was > 100 µM and the GI50 [8] was > 100 µM. The TGI [8] was > 100 µM, the GI50 [9] was > 100 µM and the TGI [9] was > 100 µM. For the same molecule, the GI50 [10] was > 100 µM and the TGI [10] was > 100 µM.

With `Cc1ccn2c(CCc3nnc4cc(C)ccn34)nnc2c1` the TGI [1] was > 100 µM, the TGI [2] was > 100 µM and the TGI [3] was > 100 µM. The TGI [4] was > 100 µM, the TGI [5] was > 100 µM and the TGI [6] was > 100 µM. For the same molecule, the TGI [7] was > 100 µM, the TGI [8] was > 100 µM and the TGI [9] was > 100 µM. The TGI [10] was > 100 µM.

`Cc1ccc(C2=C(c3ccc(C)cc3)C3(c4ccc(C)cc4)C4C(=O)c5ccccc5C(=O)C4C2(c2ccc(C)cc2)S3=O)cc1` (centres undefined) was tested, and the GI50 [1] was 69.5 µM, the TGI [1] was > 100 µM and the GI50 [2] was > 100 µM. The TGI [2] was > 100 µM, the GI50 [3] was > 100 µM and the TGI [3] was > 100 µM. For the same molecule, the GI50 [4] was > 100 µM, the TGI [4] was > 100 µM and the GI50 [5] was > 100 µM. The TGI [5] was > 100 µM, the GI50 [6] was > 100 µM and the TGI [6] was > 100 µM. For the same molecule, the GI50 [7] was > 100 µM, the TGI [7] was > 100 µM and the GI50 [8] was > 100 µM. The TGI [8] was > 100 µM, the GI50 [9] was > 100 µM and the TGI [9] was > 100 µM. For the same molecule, the GI50 [10] was > 100 µM and the TGI [10] was > 100 µM.

Molecule `COC(=O)C(CBr)CBr` has a TGI [1] of 8.91 µM, a TGI [2] of 6.58 µM and a TGI [3] of 10 µM. It also gave a TGI [4] of 24.3 µM, a TGI [5] of 4.72 µM and a TGI [6] of 4.93 µM. For the same molecule, the TGI [7] was 33.1 µM, the TGI [8] was 8.83 µM and the TGI [9] was 31.1 µM. It also gave a TGI [10] of 18.1 µM.

In the case of `CCN(CC)CCN(Cc1ccc(F)cc1)c1ccc(CO)c(Cl)c1`, the GI50 [1] is reported as 30.2 µM, the TGI [1] is reported as > 100 µM and the GI50 [2] is reported as > 89.6 µM. For the same molecule, the TGI [2] was > 100 µM, the GI50 [3] was 1.85 µM and the TGI [3] was 17.3 µM. For the same molecule, the GI50 [4] was 18.8 µM, the TGI [4] was 75.9 µM and the GI50 [5] was 17.2 µM. For the same molecule, the TGI [5] was 35.2 µM, the GI50 [6] was 19.5 µM and the TGI [6] was 37.3 µM. The GI50 [7] was 1.17 µM, the TGI [7] was 3.97 µM and the GI50 [8] was 5.37 µM. It also gave a TGI [8] of 75.4 µM, a GI50 [9] of 15.1 µM and a TGI [9] of 49.9 µM. The GI50 [10] was 6.07 µM and the TGI [10] was 20.8 µM.
